From US9556115B2, “Sulfonamides for the prevention of diabetes” (Dompé S.P.A., priority 2009, dated 2017)

Tested on: MLD-STZ-induced diabetes in male C57BL/6J mice
Test: Diabetes induction after multiple low dose (MLD)-streptozotocin (STZ) injections
Assay type: in vivo, mouse
Details: for glycemic levels after development of diabetes vs control mice / time to develop the disease compared to controls: mice injected with STZ, summary statement
Method: Injection of susceptible mice strains with multiple low doses of (STZ) provokes a condition with clinical and histoimmunological features similar to human Type 1 diabetes mellitus (DM). It has been established that five daily doses of 40 mg/kg/day of STZ are required for delayed onset, sustained and progressive hyperglycemia and insulitis in male C57BL/6 mice.
This model was previously used to study the role of proinflammatory cytokines in the development of Type 1 diabetes. 12 male C57BL/6J mice received MLD-STZ treatment. STZ was injected i.p. at a dose of 40 mg/kg/day, for 5 consecutive days. Glucose concentrations in venous blood was measured every day starting from the first day of treatment. Mice with glycemia over 250 mg/dl on three consecutive tests were considered diabetic, with the first detection of hyperglycemia taken as the date of diabetes onset. The mice were monitored for up to 60 days post first STZ injection. Reparixin was administered by s.c. continuous infusion starting from day −1 up to day 7 after first STZ injection at a dose of 8 mg/h/kg.
Male C57BL/6J mice were injected i.p. with (ML)-streptozotocin (STZ) at a dose of 40 mg/kg/day, for 5 consecutive days. Glucose concentrations in venous blood were measured every day starting from the first day of treatment (day 0). Mice with glycaemia over 250 mg/dl on three consecutive tests were considered diabetic, with the first detection of hyperglycemia taken as the date of diabetes onset. The mice were followed for up to 60 days post first STZ injection. Meraxin was administered per os at a dose of 15 mg/kg for 7 or 14 days, starting from day −1 of first STZ injection.
In a second set of experiments, the treatment with Meraxin for 14 days was started +5 (n=4) days after the first STZ injection to mimic the clinical setting of diabetes onset.

Compound | diabetes onset (Meraxin for 14 days started day +5 after first STZ injection (up to day 19), n=4) | glycaemic levels vs vehicle-treated mice (Meraxin for 14 days started day +5 after first STZ injection, whole 2-month observation period) | median diabetes-free time (Meraxin per os 15 mg/kg for 7 days starting from day -1, n=8, p=0.67 vs ctrl) | median diabetes-free time (Meraxin per os 15 mg/kg for 14 days starting from day -1, n=8, p=0.016 vs ctrl) | glycemic levels after development of diabetes vs control mice | time to develop the disease compared to controls | glycaemia levels after diabetes development vs vehicle-treated group (Reparixin s.c. continuous infusion 8 mg/h/kg day -1 to day 7, whole two-month observation period) | median diabetes free time (Reparixin s.c. continuous infusion 8 mg/h/kg from day -1 up to day 7 after first STZ injection, n=8, p=0.026 vs ctrl)
C[C@@H](C(=O)NS(C)(=O)=O)c1ccc(OS(=O)(=O)C(F)(F)F)cc1 [Meraxin, R(-)-2-[(4′-trifluoromethanesulfonyloxy)phenyl]propionyl-methanesulfonamide] | clearly prevented diabetes onset | constantly and significantly lower | 13+2.8 days | 29+16 | significantly lower | more than double the time |  | 
CC(C)Cc1ccc([C@@H](C)C(=O)NS(C)(=O)=O)cc1 [Reparixin, R(-)-2-[(4-isobutylphenyl)propionyl]-methanesulfonamide] |  |  |  |  | significantly lower | more than double the time | constantly and significantly lower | 27 ± 15 days
